Here are results for twelve compounds from patent publication US9944654B2, “Nargenicin compounds and uses thereof as antibacterial agents” (priority 2014, dated 2018).

Each structure is given as a SMILES string. pIC50: −log10 of the molar value. ≈ marks a conversion by molar mass, not a printed value. Where two headings read alike, the source gives them in different places. Where only a bound is given, the exact number is not on record here.

Usually IC50 stands for the concentration needed to halve the response being measured. Usually pIC50 stands for −log10 of the IC50, conventionally taken in molar units. A low value points to a high IC50.

For test [1], the system named is Escherichia coli MB5747 (LS 883, tolC). As to the kind of experiment: microbe, parasite or virus in culture. It is filed as cell-based. The following applies: Escherichia coli, read-out: E. coli LS883 tolC (MIC), MHII broth; * = some reduction of growth versus control at […].
Test [2] deals with T1, E. coli DnaE (DNA polymerase III α-subunit from Escherichia coli) (Escherichia coli, UniProt P10443).
T1 construct: EcDnaE (E. coli DnaE residues 1-1160); 6xHis (N); made in house; host or cells: E. coli BL21(DE3)
As to the kind of experiment: In vitro DnaE single enzyme assay (E. coli). Type of test: biochemical. As to conditions: for IC50: read-out: E. coli DnaE IC50 (converted); for pIC50: E. coli DnaE IC50. The procedure, abridged: (§1)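 3H-dTTP (0.011 mM) incorporation into DNase I-activated calf thymus DNA, alongside the other three dNTPs at 0.025 mM, measured by filter counting after TCA precipitation. Reactions ran 30 min at 30° C., started with purified N-His DnaE: 0.8 μg/ml for E. coli, 0.05 μg/ml for S. aureus.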

Test [3] deals with Pseudomonas aeruginosa MB5890 (CB1101, efflux-deleted). Kind of test: microbe, parasite or virus in culture. Type of test: cell-based. The following applies: Pseudomonas aeruginosa, read-out: P. aeruginosa MB5890 efflux-del (MIC), MHII broth; * = some reduction of growth versus control at […].
In test [4] the test system is Streptococcus pneumoniae MB6357 (CL 2883). As to the kind of experiment: Nargenicin antibacterial assay (MIC), S. pneumoniae. It is filed as cell-based. As to conditions: Streptococcus pneumoniae, read-out: S. pneumoniae MB2883 (MIC), Isosensitest broth; * = some reduction of growth versus control at […].
For test [5], the target named is T2, S. aureus DnaE (DNA polymerase III α-subunit homolog from Staphylococcus aureus) (Staphylococcus aureus, UniProt Q5HF71).
T2 construct: SaDnaE (S. aureus DnaE residues 1-1065); 6xHis (N); made in house; host or cells: E. coli BL21-AI
T2 sequence (Q5HF71 1-1065): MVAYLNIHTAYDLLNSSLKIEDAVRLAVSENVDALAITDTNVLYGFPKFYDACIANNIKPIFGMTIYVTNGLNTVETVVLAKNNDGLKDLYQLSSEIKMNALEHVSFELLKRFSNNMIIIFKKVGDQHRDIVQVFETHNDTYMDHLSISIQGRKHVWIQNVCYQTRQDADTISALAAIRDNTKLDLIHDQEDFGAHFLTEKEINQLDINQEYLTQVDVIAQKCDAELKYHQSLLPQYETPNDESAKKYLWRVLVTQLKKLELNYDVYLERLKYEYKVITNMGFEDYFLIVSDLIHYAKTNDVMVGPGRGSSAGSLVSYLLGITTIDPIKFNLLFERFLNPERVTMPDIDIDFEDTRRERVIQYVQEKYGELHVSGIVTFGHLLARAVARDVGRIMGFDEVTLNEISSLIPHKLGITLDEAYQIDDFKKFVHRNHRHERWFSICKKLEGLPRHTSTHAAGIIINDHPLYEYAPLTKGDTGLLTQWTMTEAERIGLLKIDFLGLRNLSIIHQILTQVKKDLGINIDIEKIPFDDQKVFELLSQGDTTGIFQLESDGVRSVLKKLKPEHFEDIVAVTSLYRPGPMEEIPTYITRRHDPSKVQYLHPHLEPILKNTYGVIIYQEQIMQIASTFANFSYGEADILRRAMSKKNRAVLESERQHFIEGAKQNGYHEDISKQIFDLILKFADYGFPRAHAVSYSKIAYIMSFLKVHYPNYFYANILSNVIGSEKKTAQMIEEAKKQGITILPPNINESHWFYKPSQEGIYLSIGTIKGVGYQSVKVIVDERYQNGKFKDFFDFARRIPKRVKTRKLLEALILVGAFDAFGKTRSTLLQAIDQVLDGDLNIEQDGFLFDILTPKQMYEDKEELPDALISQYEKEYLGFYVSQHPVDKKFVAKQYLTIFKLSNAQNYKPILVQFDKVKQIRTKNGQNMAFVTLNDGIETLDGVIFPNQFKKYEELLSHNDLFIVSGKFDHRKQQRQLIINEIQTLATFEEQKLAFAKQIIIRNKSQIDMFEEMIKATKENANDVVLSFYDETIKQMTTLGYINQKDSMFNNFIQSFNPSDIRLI
Kind of test: biochemical. It is filed as biochemical. As to conditions: for pIC50: S. aureus DnaE IC50; for IC50: read-out: S. aureus DnaE IC50 (converted). The procedure, abridged: as §1

The subject of test [6] is Staphylococcus aureus MB6266 (MRSA COL). Kind of test: Nargenicin antibacterial assay (MIC), S. aureus. Type of test: cell-based. The following applies: Staphylococcus aureus, MRSA, read-out: S. aureus COL (MIC), MHII broth + 50% human serum; * = some reduction of growth versus control at […].

T1 sequence (P10443 whole entry, the tested form may be a part): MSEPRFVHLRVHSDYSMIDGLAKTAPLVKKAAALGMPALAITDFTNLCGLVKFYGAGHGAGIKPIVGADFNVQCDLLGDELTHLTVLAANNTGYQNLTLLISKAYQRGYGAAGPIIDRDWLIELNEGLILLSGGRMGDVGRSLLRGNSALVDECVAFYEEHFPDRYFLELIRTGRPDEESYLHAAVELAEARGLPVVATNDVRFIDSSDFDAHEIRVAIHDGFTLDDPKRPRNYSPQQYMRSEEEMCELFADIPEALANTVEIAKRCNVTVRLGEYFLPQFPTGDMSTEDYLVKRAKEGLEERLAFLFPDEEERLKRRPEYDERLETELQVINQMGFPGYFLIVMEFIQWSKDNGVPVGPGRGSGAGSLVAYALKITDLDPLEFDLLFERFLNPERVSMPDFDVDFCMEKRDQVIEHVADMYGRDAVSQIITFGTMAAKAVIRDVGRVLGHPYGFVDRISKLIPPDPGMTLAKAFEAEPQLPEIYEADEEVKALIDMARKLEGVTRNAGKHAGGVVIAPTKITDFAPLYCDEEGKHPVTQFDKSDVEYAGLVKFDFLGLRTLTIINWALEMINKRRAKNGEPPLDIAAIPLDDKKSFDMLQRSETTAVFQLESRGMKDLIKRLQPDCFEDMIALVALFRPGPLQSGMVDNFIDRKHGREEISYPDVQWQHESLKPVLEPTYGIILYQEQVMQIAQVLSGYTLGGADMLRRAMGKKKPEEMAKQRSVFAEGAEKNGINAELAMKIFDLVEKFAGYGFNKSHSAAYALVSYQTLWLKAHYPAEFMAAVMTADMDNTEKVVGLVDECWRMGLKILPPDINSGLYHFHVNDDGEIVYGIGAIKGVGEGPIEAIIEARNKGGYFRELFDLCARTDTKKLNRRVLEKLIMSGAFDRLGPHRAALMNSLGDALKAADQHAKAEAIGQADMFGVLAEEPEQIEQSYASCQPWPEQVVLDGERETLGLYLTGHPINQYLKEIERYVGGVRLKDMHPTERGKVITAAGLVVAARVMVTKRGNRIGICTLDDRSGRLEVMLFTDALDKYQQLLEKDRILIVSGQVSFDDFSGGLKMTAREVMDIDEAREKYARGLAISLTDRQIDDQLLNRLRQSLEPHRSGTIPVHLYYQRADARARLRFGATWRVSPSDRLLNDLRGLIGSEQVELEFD

`CO[C@H]1C[C@H]2C=CC3C4[C@H](O)[C@@H](C)[C@@H](OC(=O)c5ccc[nH]5)[C@@H]3O[C@]42/C(C)=C/[C@@H](C)[C@@H]([C@@H](C)OC(=O)Nc2nnn[nH]2)OC1=O` [Example 65]: the MIC in test [1] was 2 µg/mL (≈ 3.19 µM); in test [3] it was 64 µg/mL (≈ 102 µM); in test [4] it was greater than 128 µg/mL; in test [6], 2 µg/mL. For the same compound, in test [2], the half-maximal inhibitory concentration (IC50) is 16 µM. Further, the pIC50 in test [5] was greater than 8.02.

Take `CO[C@H]1C[C@H]2C=C[C@H]3[C@H]4O[C@]2(/C(C)=C/[C@@H](C)[C@@H]([C@@H](C)O)OC1=O)[C@@H]3C(=O)[C@@H](C)[C@H]4OC(=O)c1ccc[nH]1` [Example 146, (3R,4S,7S,8aS,10aR,11R,12R,13S,14aR,14bS,E)-4-((R)-1-hydroxyethyl)-7-methoxy-1,3,13-trimethyl-6,14-dioxo-3,4,6,7,8,8a,10a,11,12,13,14,14a-dodecahydro-11,14b-epoxynaphtho[2,1-e]oxecin-12-yl 1H-pyrrole-2-carboxylate]: the MIC in test [1] was 128 µg/mL (≈ 249 µM); in test [3], greater than 128 µg/mL; in test [4] it was 128 µg/mL (≈ 249 µM); in test [6], greater than 128 µg/mL. For the same compound, the IC50 in test [2] is greater than 195 µM. For the same compound, in test [5], the pIC50 was 5.93.

With `C=CC[C@@H]1C(C)[C@@H](O)[C@@H]2[C@H]3C=C[C@@H]4C[C@H](OC)C(=O)O[C@H]([C@@H](C)O)[C@H](C)/C=C(\C)[C@@]24O[C@H]31` (stereo partly drawn) [Example 179, (3R,4S,7S,8aS,10aR,11S,12R,14R,14aS,14bS,E)-12-allyl-14-hydroxy-4-((R)-1-hydroxyethyl)-7-methoxy-1,3,13-trimethyl-3,4,8,8a,10a,11,12,13,14,14a-decahydro-11,14b-epoxynaphtho[2,1-e]oxecin-6(7H)-one], the MIC was 64 µg/mL (≈ 143 µM) in test [1], greater than 64 µg/mL in test [3], 64 µg/mL (≈ 143 µM) in test [4] and greater than 64 µg/mL in test [6]. Further, the concentration for half-maximal inhibition (IC50) in test [2] is greater than 112 µM. The same compound gave a negative-log IC50 (pIC50) in test [5] of 4.54.

Take `CO[C@H]1C[C@H]2C=CC3C4[C@H](O)[C@@H](C)[C@@H](OC(=O)c5ccc(OC(C)=O)n5O)[C@@H]3O[C@]42/C(C)=C/[C@@H](C)[C@@H]([C@@H](C)O)OC1=O` [Example 173]: the MIC in test [1] is 8 µg/mL (≈ 13.6 µM); in test [3], 16 µg/mL (≈ 27.1 µM); in test [4], 128 µg/mL (≈ 217 µM); in test [6] it was greater than 128 µg/mL. Moreover, the half-maximal inhibitory concentration (IC50) in test [2] was greater than 170 µM. In test [5], this compound showed a pIC50 of 6.27.

As to `CO[C@H]1C[C@H]2C=CC3C4[C@H](O)[C@@H](C)[C@@H](OC(=O)c5ccc[nH]5)[C@@H]3O[C@]42/C(C)=C/[C@@H](C)[C@@H]([C@@H](C)OC(=O)C(=O)OCCN2CCN(C)CC2)OC1=O.O=C(O)C(F)(F)F` [Example 210], the MIC was 1 µg/mL in test [1], 32 µg/mL in test [3], greater than 128 µg/mL in test [4] and 1 µg/mL in test [6]. Moreover, in test [2], the 50% inhibitory concentration (IC50) was 4.95 µM. The compound further gave a pIC50 in test [5] greater than 8.14.

For `CCCNC(=O)O[C@@H]1[C@@H](C)[C@@H](OC(=O)c2ccc[nH]2)[C@@H]2O[C@@]34/C(C)=C/[C@@H](C)[C@@H]([C@@H](C)OC(=O)NCCC)OC(=O)[C@@H](OC)C[C@H]3C=C[C@@H]2[C@@H]14` [Example 3], the MIC in test [1] is greater than 8 µg/mL; in test [3], greater than 128 µg/mL; in test [4], greater than 128 µg/mL; in test [6] it was greater than 8 µg/mL. Besides, the IC50 in test [2] was 30.6 µM. The compound also gave a negative logarithm of the IC50 (pIC50) in test [5] of less than 3.84.

`CO[C@H]1C[C@H]2C=CC3C4[C@H](O)[C@@H](C)[C@@H](OC(=O)c5ccc[nH]5)[C@@H]3O[C@]42/C(C)=C/[C@@H](C)[C@@H]([C@@H](C)OC(=O)C(=O)OCc2ccccc2)OC1=O` [Example 211]: the MIC is less than 0.125 µg/mL in test [1], 16 µg/mL (≈ 23.6 µM) in test [3], greater than 128 µg/mL in test [4] and 0.5 µg/mL in test [6]. The IC50 in test [2] is 2.95 µM. Moreover, the negative-log IC50 (pIC50) in test [5] was greater than 8.05.

`CO[C@H]1C[C@H]2C=C[C@H]3[C@H]4O[C@]2(/C(C)=C/[C@@H](C)[C@@H]([C@@H](C)OC(=O)C[N+]25CC[N+](CC(N)=O)(CC2)CC5)OC1=O)[C@@H]3[C@H](O)[C@@H](C)[C@H]4OC(=O)c1ccc[nH]1.O=S(=O)([O-])C(F)(F)F.[Br-]` [Example 74]: the MIC in test [1] is 0.5 µg/mL; in test [3], 32 µg/mL; in test [4], greater than 128 µg/mL; in test [6], 0.5 µg/mL. The 50% inhibitory concentration (IC50) in test [2] was 20.9 µM. Besides, the pIC50 in test [5] was greater than 8.20.

Consider `CO[C@H]1C[C@H]2C=C[C@H]3[C@H]4O[C@]2(/C(C)=C/[C@@H](C)[C@@H]([C@@H](C)O)OC1=O)[C@@H]3[C@H](O)C(C)[C@@H]4NCCN1CCCC1.O=C(O)C(F)(F)F` (stereo partly drawn) [Example 157], for which the MIC in test [1], in test [3], in test [4] and in test [6] was greater than 128 µg/mL each time. Moreover, the negative-log IC50 (pIC50) in test [2] is less than 3.80. Also, the IC50 in test [5] was 3.32 µM.

For the compound `CO[C@H]1C[C@H]2C=C[C@H]3[C@H]4O[C@]2(/C(C)=C/[C@@H](C)[C@@H]([C@@H](C)OC(=O)NCC(=O)O)OC1=O)[C@@H]3[C@H](O)[C@@H](C)[C@H]4OC(=O)c1ccc[nH]1` [Example 12], the MIC is 32 µg/mL (≈ 51.9 µM) in test [1], greater than 128 µg/mL in test [3], greater than 128 µg/mL in test [4] and greater than 128 µg/mL in test [6]. Also, the half-inhibitory concentration (IC50) in test [2] is 114 µM. Besides, in test [5], the negative-log IC50 (pIC50) is greater than 8.01.

With `CO[C@H]1C[C@H]2C=C[C@H]3[C@H]4O[C@]2(/C(C)=C/[C@@H](C)[C@@H]([C@@H](C)O)OC1=O)[C@@H]3[C@H](O)C(C)[C@@H]4CO` (stereo partly drawn) [Example 163, (3R,4S,7S,8aS,10aR,11R,12R,14R,14aS,14bS,E)-14-hydroxy-4-((R)-1-hydroxyethyl)-12-(hydroxymethyl)-7-methoxy-1,3,13-trimethyl-3,4,8,8a,10a,11,12,13,14,14a-decahydro-11,14b-epoxynaphtho[2,1-e]oxecin-6(7H)-one], the MIC in test [1] was 8 µg/mL (≈ 18.3 µM); in test [3], 8 µg/mL (≈ 18.3 µM); in test [4] it was greater than 128 µg/mL; in test [6], greater than 128 µg/mL. Further, in test [2], the negative logarithm of the IC50 (pIC50) was less than 3.64. The IC50 in test [5] is 0.687 µM.

For `CO[C@H]1CC2C=C[C@H]3[C@H]4O[C@]2(/C(C)=C/[C@@H](C)[C@@H]([C@@H](C)OC(=O)OC2CCC(O)CC2)OC1=O)[C@@H]3[C@H](O)[C@@H](C)[C@H]4OC(=O)c1ccc[nH]1` (single isomer, unassigned) [Example 34], the MIC in test [1] is 32 µg/mL (≈ 48.7 µM); in test [3], greater than 128 µg/mL; in test [4] it was 64 µg/mL (≈ 97.3 µM); in test [6], 32 µg/mL. Further, the 50% inhibitory concentration (IC50) in test [2] is 106 µM. Further, the negative-log IC50 (pIC50) in test [5] was 7.97.
